Measured values taken from ChEMBL document CHEMBL1817600, “Design, synthesis, and biological evaluation of imidazoline derivatives as p53-MDM2 binding inhibitors” (Bioorg Med Chem, 2011).
One block for each compound: values may come before it.

Key:
[1] = test system: HCT-116; test: Antiproliferative activity against human HCT116 cells expressing wild type p53 after 72 hrs by MTT assay
[2] = test system: A549; test: Cell cycle arrest in human A549 cells expressing wild type p53 assessed as accumulation at S phase at 10 uM after 72 hrs using propidium iodide staining by flow cytometric analysis (reference value: 19.23%); type: functional
[3] = test system: A549; test: Cell cycle arrest in human A549 cells expressing wild type p53 assessed as accumulation at G2/M phase at 10 uM after 72 hrs using propidium iodide staining by flow cytometric analysis (reference value: 7.49%); type: functional
[4] = test system: A549; test: Antiproliferative activity against human A549 cells expressing wild type p53 after 72 hrs by MTT assay; conditions: A549, 72 h
[5] = test system: PC-3; test: Antiproliferative activity against p53 deficient human PC3 cells after 72 hrs by MTT assay; conditions: PC-3, 72 h
[6] = test system: A549; test: Cell cycle arrest in human A549 cells expressing wild type p53 assessed as accumulation at G0/G1 phase at 10 uM after 72 hrs using propidium iodide staining by flow cytometric analysis (reference value: 73.28%); type: functional
[7] = test system: KB; test: Antiproliferative activity against human KB cells expressing p53 mutant after 72 hrs by MTT assay; type: functional, cell-based
[8] = target: Tumour suppressor p53/oncoprotein Mdm2 (Homo sapiens, UniProt Q00987); test: (§1) Inhibition of p53-MDM2 expressed in Escherichia coli BL-21 (DE3) after 1 hr by fluorescence polarization competitive binding assay
Chain of Tumour suppressor p53/oncoprotein Mdm2 (Homo sapiens, UniProt Q00987) (P04637 whole entry): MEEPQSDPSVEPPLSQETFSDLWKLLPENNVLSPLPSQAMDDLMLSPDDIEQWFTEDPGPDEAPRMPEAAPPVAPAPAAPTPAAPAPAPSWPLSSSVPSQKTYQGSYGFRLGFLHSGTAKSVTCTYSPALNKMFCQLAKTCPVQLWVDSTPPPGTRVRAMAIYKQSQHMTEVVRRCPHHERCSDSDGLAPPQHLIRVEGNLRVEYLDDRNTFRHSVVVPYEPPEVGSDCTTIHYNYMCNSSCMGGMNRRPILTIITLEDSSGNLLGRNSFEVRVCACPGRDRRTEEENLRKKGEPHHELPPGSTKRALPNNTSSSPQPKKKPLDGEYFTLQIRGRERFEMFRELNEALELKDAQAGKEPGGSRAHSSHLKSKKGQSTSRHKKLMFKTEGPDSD
Chain of Tumour suppressor p53/oncoprotein Mdm2 (Homo sapiens, UniProt Q00987) (Q00987 whole entry): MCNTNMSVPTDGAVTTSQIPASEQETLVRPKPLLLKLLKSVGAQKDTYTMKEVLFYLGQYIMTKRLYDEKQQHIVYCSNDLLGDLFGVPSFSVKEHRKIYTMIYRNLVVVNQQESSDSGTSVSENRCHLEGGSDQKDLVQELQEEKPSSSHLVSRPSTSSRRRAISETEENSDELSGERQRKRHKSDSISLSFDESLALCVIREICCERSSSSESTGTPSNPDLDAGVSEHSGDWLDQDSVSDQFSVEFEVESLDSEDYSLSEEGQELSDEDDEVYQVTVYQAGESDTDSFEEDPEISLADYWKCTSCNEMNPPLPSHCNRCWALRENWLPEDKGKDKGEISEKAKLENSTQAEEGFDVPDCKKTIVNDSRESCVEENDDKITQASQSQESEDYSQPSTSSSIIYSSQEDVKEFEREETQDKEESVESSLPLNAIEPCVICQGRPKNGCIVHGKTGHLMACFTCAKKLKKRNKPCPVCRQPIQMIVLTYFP

[9] = target: Tumour suppressor p53/oncoprotein Mdm2 (Homo sapiens, UniProt P04637+Q00987); test: as §1
Chain of Tumour suppressor p53/oncoprotein Mdm2 (Homo sapiens, UniProt P04637+Q00987) (P04637 whole entry): as the sequence (P04637 whole entry) above
Chain of Tumour suppressor p53/oncoprotein Mdm2 (Homo sapiens, UniProt P04637+Q00987) (Q00987 whole entry): as the sequence (Q00987 whole entry) above

Compound: COCCOC(=O)N1C(c2ccc(OC)cc2OC(C)C)=NC(c2ccc(Cl)cc2)C1c1ccc(Cl)cc1 (configuration not stated)
Ki [8]: 2.3 µM

Compound: COc1ccc(C2=NC(c3ccc(Cl)cc3)C(c3ccc(Cl)cc3)N2C(=O)OCc2ccccc2)c(OC(C)C)c1 (configuration not stated)
Ki [8]: 32.4 µM

Compound: COc1ccc(C2=NC(c3ccc(Cl)cc3)C(c3ccc(Cl)cc3)N2C(=O)OCCNC(C)=O)c(OC(C)C)c1 (configuration not stated)
IC50 ([1]; Homo sapiens, HCT-116, 72 h): 5.81 µM
Activity [2]: 7.4%
Ki [8]: 0.6 µM
Activity [3]: 30.93%
IC50 [4]: 9.1 µM
IC50 [5]: 33.1 µM
Activity [6]: 61.67%
IC50 [7]: 3.6 µM

Compound: CCOCCOC(=O)N1C(c2ccc(OC)cc2OC(C)C)=NC(c2ccc(Cl)cc2)C1c1ccc(Cl)cc1 (configuration not stated)
Ki [8]: 1.38 µM

Compound: COc1ccc(C2=NC(c3ccc(Cl)cc3)C(c3ccc(Cl)cc3)N2C(=O)OCCN(C)C)c(OC(C)C)c1 (configuration not stated)
IC50 ([1]; hct-116): Not Active
Ki [8]: 0.57 µM
IC50 [4]: 10.8 µM
IC50 [5]: 11 µM
IC50 [7]: 8.27 µM

Compound: CCOC(=O)CN(C)C(=O)N1C(c2ccc(OC)cc2OC(C)C)=NC(c2ccc(Cl)cc2)C1c1ccc(Cl)cc1 (configuration not stated)
Ki [8]: 1.59 µM

Compound: COc1ccc(C2=NC(c3ccc(Cl)cc3)C(c3ccc(Cl)cc3)N2C(=O)N(C)C)c(OC(C)C)c1 (configuration not stated)
Ki [8]: 3.32 µM

Compound: COc1ccc(C2=NC(c3ccc(C(F)(F)F)cc3)C(c3ccc(C(F)(F)F)cc3)N2C(=O)N2CCN(C(C)=O)CC2)c(OC(C)C)c1 (configuration not stated)
Ki [9]: Not Active

Compound: COc1ccc(C2=NC(c3ccccc3)C(c3ccccc3)N2C(=O)CN2CCN(C)CC2)c(OC(C)C)c1 (configuration not stated)
Ki [9]: Not Active

Compound: CCN(CC)CC(=O)N1C(c2ccc(OC)cc2OC(C)C)=NC(c2ccccc2)C1c1ccccc1 (configuration not stated)
Ki [9]: Not Active

Compound: CCN(CC)CC(=O)N1C(c2ccc(OC)cc2OC(C)C)=NC(c2ccc(Cl)cc2)C1c1ccc(Cl)cc1 (configuration not stated)
Ki [9]: Not Active

Compound: CCN(CC)CCC(=O)N1C(c2ccc(OC)cc2OC(C)C)=NC(c2ccc(Cl)cc2)C1c1ccc(Cl)cc1 (configuration not stated)
IC50 ([1]; Homo sapiens, HCT-116, 72 h): 3.73 µM
Ki [8]: 1.22 µM
IC50 [4]: 3.82 µM
IC50 [5]: 3.32 µM

Compound: COc1ccc(C2=NC(c3ccc(C(F)(F)F)cc3)C(c3ccc(C(F)(F)F)cc3)N2C(=O)CN2CCN(C(C)=O)CC2)c(OC(C)C)c1 (configuration not stated)
Ki [9]: Not Active

Continued, in another order:

IC50 ([1]; Homo sapiens, HCT-116, 72 h): 4.58 µM
IC50 [4]: 2.33 µM
IC50 [5]: 29.2 µM
IC50 [7]: 35.2 µM
Compound: COc1ccc(C2=NC(c3ccc(Cl)cc3)C(c3ccc(Cl)cc3)N2C(=O)N2CCN(C(C)=O)CC2)c(OC(C)C)c1 (configuration not stated)
Activity [2]: 13.78%
Activity [3]: 19.27%
Activity [6]: 66.95%

IC50 ([1]; Homo sapiens, HCT-116, 72 h): 10.9 µM
Ki [8]: 0.48 µM
IC50 [4]: 8.29 µM
IC50 [5]: 14.3 µM
IC50 [7]: 7.39 µM
Compound: COc1ccc(C2=NC(c3ccc(Cl)cc3)C(c3ccc(Cl)cc3)N2C(=O)NCC(=O)N2CCOCC2)c(OC(C)C)c1 (configuration not stated)

Ki [8]: 4.07 µM
Compound: COc1ccc(C2=NC(c3ccc(Cl)cc3)C(c3ccc(Cl)cc3)N2C(=O)N2CCOCC2)c(OC(C)C)c1 (configuration not stated)

Ki [8]: 8.77 µM
Compound: COc1ccc(C2=NC(c3ccc(Cl)cc3)C(c3ccc(Cl)cc3)N2C(=O)N2CCC(C(=O)O)CC2)c(OC(C)C)c1 (configuration not stated)

Ki [9]: Not Active
Compound: CCC1=NC(c2ccc(Cl)cc2)C(c2ccc(Cl)cc2)N1C(=O)N1CCN(C)CC1 (configuration not stated)

Ki [9]: Not Active
Compound: CCC1=NC(c2ccc(Cl)cc2)C(c2ccc(Cl)cc2)N1C(=O)N(CC)CC (configuration not stated)

Ki [9]: Not Active
Compound: CCC1=NC(c2ccc(Cl)cc2)C(c2ccc(Cl)cc2)N1C(=O)Nc1ccc(N2CCCC2)cc1 (configuration not stated)

Ki [9]: Not Active
Compound: CCC1=NC(c2ccc(Cl)cc2)C(c2ccc(Cl)cc2)N1C(=O)NCC(=O)N1CCOCC1 (configuration not stated)

Ki [8]: 2.64 µM
Compound: COc1ccc(C2=NC(c3ccc(Cl)cc3)C(c3ccc(Cl)cc3)N2C(=O)CN2CCOCC2)c(OC(C)C)c1 (configuration not stated)

Ki [8]: 25.8 µM
Compound: COc1ccc(C2=NC(c3ccc(Cl)cc3)C(c3ccc(Cl)cc3)N2C(=O)CN2CCN(C)CC2)c(OC(C)C)c1 (configuration not stated)

Ki [8]: 82.1 µM
Compound: COc1ccc(C2=NC(c3ccc(Cl)cc3)C(c3ccc(Cl)cc3)N2C(=O)CN2CCCCC2)c(OC(C)C)c1 (configuration not stated)

IC50 ([1]; Homo sapiens, HCT-116, 72 h): 5.4 µM
Ki [8]: 0.9 µM
IC50 [4]: 3.19 µM
IC50 [5]: 8.44 µM
IC50 [7]: 5.81 µM
Compound: COc1ccc(C2=NC(c3ccc(Cl)cc3)C(c3ccc(Cl)cc3)N2C(=O)CCN2CCN(C)CC2)c(OC(C)C)c1 (configuration not stated)

IC50 ([1]; Homo sapiens, HCT-116, 72 h): 7.57 µM
Ki [8]: 1.3 µM
IC50 [4]: 3.82 µM
IC50 [5]: 2.74 µM
Compound: COc1ccc(C2=NC(c3ccc(Cl)cc3)C(c3ccc(Cl)cc3)N2C(=O)CCN2CCOCC2)c(OC(C)C)c1 (configuration not stated)
